{"source": "paper PMC9029856", "about": "“Impact of Different [Tc(N)PNP]-Scaffolds on the Biological Properties of the Small cRGDfK Peptide: Synthesis, In Vitro and In Vivo Evaluations” (Molecules, 2022)", "key": {"[1]": {"type": "physicochemical", "method": "To explore the impact of the PNP ligand on the lipophilicity of the complexes, Log Ps in a mixture of n-octanol and PBS were determined. The lipophilicity decreased in the order ^99mTc1 > ^99mTc2 > ^99mTc3. The lipophilic character of each compound correlated well with the corresponding HPLC retention time and protein binding behavior.\nDetermination of log P values. n-Octanol/PBS partition coefficients were determined by vortex mixing (20 min) 3.0 mL of n-octanol, 3.0 mL of PBS and 100 µL of the radiolabeled compound purified as above. After centrifugation (3000 g for 10 min), aliquots (100 µL) of both the organic and the aqueous phases were collected and counted with a γ-counter."}, "[2]": {"type": "in vitro ADME", "settings": "serum", "method": "Thus, to have some predictive indications of the metabolic outcome of our compounds, the binding to serum proteins and the enzymatic biotransformation of ^99mTc1–3 in blood and tissue homogenates were assessed in vitro by incubating the purified compounds at 37 °C in human and mouse sera as well as in murine liver and kidney homogenates.\nProtein Binding. The affinity of the ^99mTc(N) complexes toward the serum proteins was evaluated by chromatographic methods.\nUpon incubation, 25 µL of each sample was withdrawn and loaded on a pre-spun (735× g for 2 min) Sephadex G-50 mini-column. The column was centrifuged at 735 × g for 1 min. The collected eluate and the column were counted in a NaI-scintillation counter. The protein-bound complex was calculated as the percentage of the total activity."}, "[3]": {"test_system": "human melanoma M21 (αvβ3 positive) cells", "assay": "Cell uptake and internalization in M21 cells", "type": "cell-based", "method": "(§1) Cell uptake and internalization studies were performed on receptor-positive human melanoma M21 (expressing high levels of αvβ3 integrin and moderate level of integrin αvβ5), human breast cancer MCF7 (exclusively expressing αvβ5), and receptor-negative human melanoma M21L cell lines. The expression of αvβ3 and αvβ5 by cells was already evaluated by flow cytometry (Table 2). The stability of each radiolabeled peptide in the culture media before and after cell exposure was assessed.\n(§2) Experiments were conducted in suspension at 37 °C. The working conditions were set up to avoid cell damage and/or death. With the use of these information, the cells were pre-incubated in sterile glass tubes at 37 °C for 10 min, in the presence or not of cRGDfK pentapeptide (50 µL; 1.65 mM).\n(§3) Then, 1 mL of the cell suspension (1 × 10^6 cells/mL) was incubated with intermittent agitation with 10 µL (10 µCi) of ^99mTc1–3. At 90 min, the cells were moved in Eppendorf microcentrifuge tubes (1.5 mL) and the incubation was interrupted by centrifugation (3000 rpm for 5 min at 10 °C). The supernatant (S1) was separated from the pellet. The cell pellet was treated 10 min at room temperature with saline acetate buffer (CH3COOH 0.2M/NaCl 0.5 M) to remove the membrane-bound compound. After centrifugation (3000 rpm for 10 min at 10 °C), the supernatant (S2) was separated from the pellet (P1), and each fraction was collected, placed in a separated counting tube, and the activity was measured using a NaI counter (Cobra II, Packard) to estimate both the cell uptake and the internalized fraction.\n(§4) The uptake of complexes was expressed as percentage cell uptake of the total activity on 10^6 cells (% cell uptake/10^6 cells).\n(§5) All assessments were conducted in triplicate for three experiments."}, "[4]": {"test_system": "receptor-negative human melanoma M21L cells", "assay": "Cell uptake and internalization in M21L cells", "type": "cell-based", "settings": "negative M21L cell line, 37 °C, 90 min", "method": "as §1, §2, §3, §4, §5"}, "[5]": {"test_system": "M21 and M21L melanoma tumors", "settings": "cited from earlier work; for Blood / Heart / Intestine / Kidneys / Liver / Muscle / Stomach: tumor-bearing mice"}}, "note": "Like-named read-outs stand apart in the source and are kept apart here."}
{"compound": "N=C(N)NCCC[C@@H]1NC(=O)[C@H](CCCCNC(=O)c2ccc(NN)nc2)NC(=O)[C@@H](Cc2ccccc2)NC(=O)[C@H](CC(=O)O)NC(=O)CNC1=O", "note": "[^99mTc-HYNIC-cRGDfK, metal not drawn]", "values": [{"measurement": "logP", "setting": "[1]", "result": -3.52}, {"measurement": "fraction unbound", "setting": "[2]", "result": 0.977}, {"measurement": "cell uptake (sum of surface bound and internalized radioactivity), blocked", "setting": "[3]; M21 blocked by an excess of cold cRGDfK, 37 °C, 90 min", "result": "0.85 ± 0.08", "unit": "% cell uptake/10^6 cells"}, {"measurement": "cell uptake (sum of surface bound and internalized radioactivity)", "setting": "[3]; M21 unblocked, 37 °C, 90 min", "result": "1.50 ± 0.08", "unit": "% cell uptake/10^6 cells"}, {"measurement": "specific/nonspecific ratio, internalized radioactivity only", "setting": "[3]; internalized radioactivity, melanoma cell lines", "result": 6.6}, {"measurement": "ratio between specific and non-specific uptake", "setting": "[3]; total uptake, melanoma cell lines", "result": 1.15}, {"measurement": "cell uptake (sum of surface bound and internalized radioactivity)", "setting": "[4]", "result": "1.30 ± 0.15", "unit": "% cell uptake/10^6 cells"}, {"measurement": "M21/M21L ratio", "setting": "[5]; 1 h p.i.", "result": 3.21}, {"measurement": "M21/blood ratio", "setting": "[5]; 1 h p.i.", "result": 2.79}, {"measurement": "M21/kidneys ratio", "setting": "[5]; 1 h p.i.", "result": 0.74}, {"measurement": "M21/liver ratio", "setting": "[5]; 1 h p.i.", "result": 1.03}, {"measurement": "M21/muscle ratio", "setting": "[5]; 1 h p.i.", "result": 3.59}, {"measurement": "M21L tumor uptake", "setting": "[5]; 1 h p.i.", "result": "0.85 ± 0.20", "unit": "%IA/g"}, {"measurement": "M21 tumor uptake", "setting": "[5]; 1 h p.i.", "result": "2.73 ± 0.26", "unit": "%IA/g"}, {"measurement": "M21/blood ratio", "setting": "[5]; 4 h p.i.", "result": 4.58}, {"measurement": "M21/kidneys ratio", "setting": "[5]; 4 h p.i.", "result": 0.73}, {"measurement": "M21/liver ratio", "setting": "[5]; 4 h p.i.", "result": 1.20}, {"measurement": "M21/muscle ratio", "setting": "[5]; 4 h p.i.", "result": 6.05}, {"measurement": "M21 tumor uptake", "setting": "[5]; 4 h p.i.", "result": "2.06 ± 0.37", "unit": "%IA/g"}, {"measurement": "Blood", "setting": "[5]; 1 h p.i.", "result": "0.98 ± 0.04", "unit": "%IA/g"}, {"measurement": "Heart", "setting": "[5]; 1 h p.i.", "result": "1.01 ± 0.05", "unit": "%IA/g"}, {"measurement": "Intestine", "setting": "[5]; 1 h p.i.", "result": "2.04 ± 0.18", "unit": "%IA/g"}, {"measurement": "Kidneys", "setting": "[5]; 1 h p.i.", "result": "3.68 ± 0.13", "unit": "%IA/g"}, {"measurement": "Liver", "setting": "[5]; 1 h p.i.", "result": "2.63 ± 0.14", "unit": "%IA/g"}, {"measurement": "Muscle", "setting": "[5]; 1 h p.i.", "result": "0.76 ± 0.69", "unit": "%IA/g"}, {"measurement": "Stomach", "setting": "[5]; 1 h p.i.", "result": "2.50 ± 0.75", "unit": "%IA"}, {"measurement": "Blood", "setting": "[5]; 4 h p.i.", "result": "0.45 ± 0.02", "unit": "%IA/g"}, {"measurement": "Heart", "setting": "[5]; 4 h p.i.", "result": "0.64 ± 0.09", "unit": "%IA/g"}, {"measurement": "Intestine", "setting": "[5]; 4 h p.i.", "result": "1.29 ± 0.25", "unit": "%IA/g"}, {"measurement": "Kidneys", "setting": "[5]; 4 h p.i.", "result": "2.81 ± 0.37", "unit": "%IA/g"}, {"measurement": "Liver", "setting": "[5]; 4 h p.i.", "result": "1.71 ± 0.28", "unit": "%IA/g"}, {"measurement": "Muscle", "setting": "[5]; 4 h p.i.", "result": "0.34 ± 0.05", "unit": "%IA/g"}, {"measurement": "Stomach", "setting": "[5]; 4 h p.i.", "result": "1.28 ± 0.22", "unit": "%IA"}]}
